Experimental data: US10976312B2, “Compositions and methods for capture of cellular targets of bioactive agents” (Promega Corporation, priority 2012, dated 2021)

Key:
Assay type in all cases: cell-based
NANOLUC-DHFR fusion [1] = target: T1, NANOLUC-DHFR fusion (Homo sapiens, UniProt P00374); test: Binding affinity to DHFR in live cells using BRET; details: HEK293 live cells, 1 μM PBI-4890 tracer, 2 h
T1 construct: expressed in transfected cells; host or cells: HEK293
T1 sequence (P00374 1-187): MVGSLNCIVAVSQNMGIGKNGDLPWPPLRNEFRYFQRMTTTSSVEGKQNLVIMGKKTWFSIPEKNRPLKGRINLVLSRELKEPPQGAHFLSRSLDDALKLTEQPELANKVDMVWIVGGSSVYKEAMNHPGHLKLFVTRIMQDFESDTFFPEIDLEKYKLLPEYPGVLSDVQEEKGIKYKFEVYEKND
Description: Binding affinity to DHFR in live cells was tested using BRET. HEK293 cells in wells of a 96-well plate were transfected using PEI with plasmid DNA encoding a NANOLUC-DHFR fusion. The DNA was diluted 1:50 with a promoterless carrier DNA plasmid (PSI) to a final concentration of 80 ng total DNA per well. Twenty-four hours post-transfection, cells were serum starved for additional 24 hours and then treated with serially diluted PBI-4848 or PBI-5015 in the presence of 1 μM PBI-4890 (TOM-methotrexate derivative). After two hours of equilibrium binding, furimazine (a coelenterazine derivative; Promega Corp.) was added to a final concentration of 20 μM, and BRET measured on a Varioskan luminometer.

NANOLUC-DHFR fusion [2] = target: T1, NANOLUC-DHFR fusion; test: Pull-down of NANOLUC:DHFR from live HEK293 cells onto HALOTAG protein beads; details: 10 μM conjugate, release with 150 μM methotrexate
Description: The DNA was diluted 1:50 with a promoterless carrier DNA plasmid (PSI) to a final concentration of 80 ng total DNA per well. Twenty-four hours post-transfection, cells were serum starved for additional 24 h and then incubated with 10 μM PBI-4848 or PBI-5015 while control cells were not treated with the conjugated drug. Following equilibration binding of 2 h, the media was removed, and the cells quickly washed with PBS and lysed in detergent-based lysis buffer for 10 min. Cell lysates were then transferred to wells of a 96-well plate containing 0.5 μl settled paramagnetic HALOTAG protein beads and incubated with shaking for 45 min. Following binding, the unbound fraction was removed, the HALOTAG protein paramagnetic beads washed, 150 μM unconjugated methotrexate added, and the captured NANOLUC:DHFR specifically released from the beads by competition with the unconjugated methotrexate for 60 min. The released NANOLUC:DHFR (+PBI5015 or +PBI 4848) and control samples were detected by NANOGLO luciferase detection reagent.

DHFR = target: T2, DHFR (Homo sapiens, UniProt P00374); test: Endogenous target pull-down from HEK293 cells, western blot and mass spec (Example 7); details: 10 uM conjugate, listed as Methotrexate-CA
T2 construct: isolate, e.g., pull-down, endogenous targets from cells; endogenous in cells; host or cells: HEK293
T2 sequence (P00374 1-187): T1 sequence (P00374 1-187)
Description: HEK293 cells were plated into wells of a 6-well plate (2.5×10^5 cells/well). 48 hours post plating, a final concentration of 10 uM of Methotrexate chloroalkane (PBI-5015) was added to 2 wells while control cells were not treated with the drug conjugate. Following equilibrium binding for 2 h, the media was removed, and the cells quickly washed with PBS and lysed in detergent-based lysis buffer for 10 min. Cell lysates were then transferred to an Eppendorf® tube containing 12.5 ul of settled paramagnetic HALOTAG protein beads and incubated with shaking for 15 min. Following binding, the unbound fraction was removed, the HALOTAG paramagnetic beads washed 3×, and the captured targets specifically released from the beads by competition with 150 μM unconjugated methotrexate for 60 mins. The released targets were subjected to mass spec analysis as well as western blot analysis using an anti-DHFR antibody (Sigma).

[3] = test system: intracellular HDAC activity; test: Intracellular HDAC activity, non-lytic HDAC-Glo I/II assay, K562 cells (Example 12); details: 2 hours treatment
Description: K562 cells were plated in serum free RPMI 1640 media into wells of a 96-well plate at 2×10^5 cells/ml. Cells were then treated with serial dilution of SAHA, PBI-5040 (SAHA-chloroalkane) or PBI 5475 (SAHA-biotin) for 2 hours and then tested for intracellular HDAC activity using the non-lytic HDAC-Glo™ I/II assay (Promega Corporation) according to manufacturer's instructions.

[4] = test system: HDAC1, HDAC2, HDAC3, HDAC6, HDAC8; test: Endogenous target pull-down from K562 cells, western blot (Example 13); details: 20 uM conjugate
Description: K562 cells were plated in 150 mm dishes at 5×10^7 cells/dish. A final concentration of 20 uM SAHA chloroalkane (PBI-5040) or PBI-5475 (SAHA-biotin) was added to 2 dishes of cells while 2 other dishes of cells were not treated with the conjugated drug (control). Following equilibrium binding of 2 hours, the media was removed, the cells quickly washed with PBS and lysed in detergent-based lysis buffer for 10 minutes and centrifuged at 3000×g for 1 minute. The cleared lysates treated with PBI-5040, as well as the cleared lysates of the control cells, were added to 75 ul of settled paramagnetic HALTOG beads. The cleared lysates of the cells treated with PBI-5475, as well as the cleared lysate of the control cells, were added to 75 ul of settled paramagnetic Streptavidin beads (GE). Following 15 minutes of binding, the unbound fraction was removed, beads were washed 3×, and the captured targets specifically released from the beads by competition with 400 μM unconjugated SAHA for 60 minutes. The released targets were subjected to western blot analysis (FIG. 13) with anti HDAC1 antibody (ABCAM); anti HDAC2 antibody (ABCAM); anti HDAC6 antibody (Millipore); anti HDAC3 antibody (Thermo Fisher) and anti HDAC8 antibody (Rockland/Promega).

[5] = test system: HDAC1, HDAC2, HDAC3, HDAC6, HDAC8; test: Endogenous target pull-down from HEK293 cells, western blot and mass spec (Example 11); details: 20 uM conjugate
Description: HEK293 cells were plated in 100 mm dishes at 2×10^5 cells/ml. Forty-eight hours post plating, a final concentration of 20 uM SAHA-chloroalkane (PBI-5040) was added to 3 of the dishes (1×10^7 cells/dish), while 3 other dishes were not treated with the conjugated drug (control). Following equilibrium binding for 2 hours, the media was removed, the cells quickly washed with PBS, lysed in a detergent-based lysis buffer for 10 minutes and centrifuged at 3000×g for 1 minute. The cleared lysates were than added to 75 ul of settled paramagnetic HALOTAG beads and incubated with shaking for 15 minutes. Following binding, the unbound fraction was removed, the HALOTAG paramagnetic beads were washed 3× (wash buffer—50 mM HEPES pH7.5, 150 mM NaCl and 0.01% IGEPAL), and the captured targets specifically released from the beads by competition with 400 μM unconjugated SAHA for 60 minutes. The released targets were subjected to mass spec analysis (FIG. 11B) as well as western blot analysis (FIG. 1-A) with anti HDAC1 antibody (ABCAM); anti HDAC2 antibody (ABCAM); anti HDAC6 antibody (Millipore); anti HDAC3 antibody (Thermo Fisher) and anti HDAC8 antibody (Rockland/Promega).

[6] = test system: intracellular HDAC activity; test: Intracellular HDAC activity, non-lytic HDAC-Glo I/II assay, HEK293 and K562 cells (Example 10); details: 2 hours treatment, relative to SAHA
Description: HEK293 cells were plated in a 96-well plate at 1×10^5 cell/ml in DMEM+10% serum, and 24 hours later, the media was replaced with serum free DMEM media. K562 cells were plated in serum free RPMI 1640 media into wells of a 96-well plate at 2×10^5 cells/ml. Cells were treated with serial dilutions of SAHA or PBI-5040 (SAHA-chloroalkane) for 2 hours and then tested for intracellular HDAC activity using the non-lytic HDAC-Glo™ I/II assay (Promega Corporation) according to manufacturer's instructions. […] The ˜2-fold reduction in SAHA potency due to the chloroalkane modification indicates minimal impact of the chloroalkane on cellular permeability or potency.

| affinity to DHFR (dose-response BRET curves) (NANOLUC-DHFR fusion [1]) | pull-down of endogenous DHFR (DHFR) | Structure (SMILES) | pull-down of Nluc:DHFR fusion (NANOLUC-DHFR fusion [2]) | reduction in potency relative to SAHA [3] | pull-down of endogenous SAHA targets (HDACs) ([4]; listed as SAHA-CA) | pull-down of endogenous SAHA targets (HDACs) ([4]; listed as SAHA-chloroalkane) | pull-down of endogenous SAHA targets (HDACs) [5] | pull-down of endogenous SAHA targets (HDACs) ([5]; listed as SAHA-CA) | reduction in SAHA potency due to the chloroalkane modification [6] |
| --- | --- | --- | --- | --- | --- | --- | --- | --- | --- |
| higher affinity to DHFR | – | CN(Cc1cnc2nc(N)nc(N)c2n1)c1ccc(C(=O)NC(CCC(=O)NCCOCCOCCCCCCCl)C(=O)O)cc1 (stereo not shown) [PBI-4848] | – | – | – | – | – | – | – |
| lower affinity to DHFR | specific pull down of DHFR | CN(Cc1cnc2nc(N)nc(N)c2n1)c1ccc(C(=O)NC(CCC(=O)NCCCCCNC(=O)OCCOCCOCCOC(=O)NCCOCCOCCCCCCCl)C(=O)O)cc1 (stereo not shown) [PBI-5015] | efficiently pulled down the Nluc:DHFR fusion | – | – | – | – | – | – |
| – | – | O=C(CCCCCCC(=O)Nc1ccc(CNC(=O)OCCOCCOCCOC(=O)NCCOCCOCCCCCCCl)cc1)NO [PBI-5040] | – | ~2 fold | specific pull down of all known targets of SAHA | all known targets of SAHA, including a low affinity target (HDAC8) and a low abundance target (HDAC3), were specifically pulled down | all known targets of SAHA, including low affinity target (HDAC8) and low abundance target (HDAC3), can be specifically pull down | specific pull down of all known targets | ~2 fold |
